# Values of other authors as cited in PubChem BioAssay AID1259409 (Chemical Carcinogenesis Research Information System (CCRIS), 2018).
# “And” between values parts separate entries of the source, which are not always exact repeats. Equal values may be shown once.
# Tested on: rodent chemically induced tumor inhibition, incidence and multiplicity
# Test: CCRIS tumor inhibitor studies
smiles,measurement,setting,value
Cn1cnc2[nH]c(=O)[nH]c(=O)c21,"tumour outcome (control, treated, inhibition, significance)","Carcinogen: URETHANE, 51-79-6, Dose [Inhibitor]: 0.05 UMOL/G BW GIVEN AT 6 HR INTERVALS DURING THE PERIOD OF 0 TO 36 HR AFTER CARCINOGEN TREATMENT FOLLOWED BY 5 MO OBSER, Route [Inhibitor]: INTRAPERITONEAL, Species: MOUSE, Strain/Sex: ICR/FEMALE, Target Tissue: Type of Lesion: LUNG: PAPILLARY ADENOMA, Dose [Carcinogen]: 0.1 MG/G BW ONCE, Promoter: NONE USED","31/59 (53%), 18/48 (38%), 28%, p 0.12"
same,"tumour outcome (control, treated, inhibition, significance)","Carcinogen: URETHANE, 51-79-6, Dose [Inhibitor]: 0.25 UMOL/G BW 1/D DURING THE PERIOD OF 5 TO 9 D AFTER CARCINOGEN TREATMENT FOLLOWED BY OBSERVATION PERIOD UNTIL END OF, Route [Inhibitor]: INTRAPERITONEAL, Species: MOUSE, Strain/Sex: ICR/FEMALE, Target Tissue: Type of Lesion: LUNG: PAPILLARY ADENOMA, Dose [Carcinogen]: 1 MG/G BW ONCE, Promoter: NONE USED","49/53 (93%), 43/62 (69%), 26%, p<0.01"
O=C(/C=C/c1ccc(O)c(C2C(c3ccc(O)cc3)Oc3cc(O)ccc3C2c2cc(C3OC(c4ccc(O)cc4)C(C(=O)c4ccc(O)cc4O)C3Cc3ccc(O)cc3)c(O)cc2O)c1)c1ccc(O)cc1O (configuration not stated),"tumour outcome (control, treated, inhibition, significance)","Carcinogen: 7,12-DIMETHYLBENZ[A]ANTHRACENE, 57-97-6, Dose [Inhibitor]: 0, 16 NMOL 2/WK 1 HR PRIOR TO EACH PROMOTER DOSE FOR 20 WK (STUDY DURATION: 20 WK), Route [Inhibitor]: DERMAL, Species: MOUSE, Strain/Sex: ICR/FEMALE, Target Tissue: Type of Lesion: SKIN: TUMOR, Dose [Carcinogen]: 0.19 UMOL ONCE, Promoter: 12-0-TETRADECANOYLPHORBOL-13-ACETATE, 16561-29-8","70%, 45%, 36%, not calculated"
CCCCC[C@H](O)/C=C/[C@@H]1[C@@H](C/C=C\CCCC(=O)O)[C@@H](O)C[C@H]1O,"tumour outcome (control, treated, inhibition, significance)","Carcinogen: ETHYL METHANESULFONATE, 62-50-0, Dose [Inhibitor]: 0, 1 MG/KG IN SESAME OIL 2/WK FOR 8 WK ADMINISTERED CONCOMITANTLY WITH CARCINOGEN TREATMENT (STUDY DURATION: 44 WK), Route [Inhibitor]: INTRAMUSCULAR, Species: RAT, Strain/Sex: WISTAR/FEMALE, Target Tissue: Type of Lesion: MAMMARY GLAND: CARCINOMA, Dose [Carcinogen]: 0.001 MOLAR SOLUTION IN TAP WATER FOR 12 WK, Promoter: NONE USED","100%, 61%, 39%, p<0.01"
same,"tumour outcome (control, treated, inhibition, significance)","Carcinogen: ETHYL METHANESULFONATE, 62-50-0, Dose [Inhibitor]: 0, 1 MG/KG IN SESAME OIL 2/WK FOR 8 WK BEGINNING POST CARCINOGEN TREATMENT (STUDY DURATION: 44 WK), Route [Inhibitor]: INTRAMUSCULAR, Species: RAT, Strain/Sex: WISTAR/FEMALE, Target Tissue: Type of Lesion: MAMMARY GLAND: CARCINOMA, Dose [Carcinogen]: 0.001 MOLAR SOLUTION IN TAP WATER FOR 12 WK, Promoter: NONE USED","100%, 88%, 12%, not significant"
CNC[C@H](O)c1ccc(O)c(O)c1,"tumour outcome (control, treated, inhibition, significance)","Carcinogen: 4-(METHYLNITROSAMINO)-1-(3-PYRIDLY)-1-BUTANONE [64091-91-4], Dose [Inhibitor]: 1 MG/KG BW 3X/WK FOR 31 WK BEGINNING 1 WK POST LAST CARCINOGEN DOSE (STUDY DURATION: 52 WK), Route [Inhibitor]: SUBCUTANEOUS, Species: HAMSTER, Strain/Sex: SYRIAN/MALE, Target Tissue: Type of Lesion: LUNG: TUMOR, Dose [Carcinogen]: 10 MG/KG BW 3X/WK FOR 20 WK (STUDY DURATION: 52 WK), Promoter: NONE","12/15 (80.0%), 15/15 (100.0%), -25%, not calculated"
same,"tumour outcome (control, treated, inhibition, significance)","Carcinogen: 4-(METHYLNITROSAMINO)-1-(3-PYRIDLY)-1-BUTANONE [64091-91-4], Dose [Inhibitor]: 1 MG/KG BW 3X/WK FOR 31 WK BEGINNING 1 WK POST LAST CARCINOGEN DOSE (STUDY DURATION: 52 WK), Route [Inhibitor]: SUBCUTANEOUS, Species: HAMSTER, Strain/Sex: SYRIAN/MALE, Target Tissue: Type of Lesion: NASAL CAVITY: TUMOR, Dose [Carcinogen]: 10 MG/KG BW 3X/WK FOR 20 WK (STUDY DURATION: 52 WK), Promoter: NONE","4/15 (26.7%), 3/15 (20.0%), 25%, not calculated"
CCCCCc1ccccc1,"tumour outcome (control, treated, inhibition, significance)","Carcinogen: 4-(METHYLNITROSAMINO)-1-(3-PYRIDYL)-1-BUTANONE, 64091-91-4, Dose [Inhibitor]: 0, 25 UMOL IN 0.1 ML CORN OIL ONCE 2 HR PRIOR TO CARCINOGEN DOSE (STUDY DURATION: 16 WK), Route [Inhibitor]: GAVAGE, Species: MOUSE, Strain/Sex: STRAIN-A/FEMALE, Target Tissue: Type of Lesion: LUNG: TUMOR, Dose [Carcinogen]: 10 UMOL IN 0.1 ML SALINE ONCE, Promoter: NONE USED","100%, 95%, 5%, not significant"
C[Se+](C)CC(=O)[O-],"tumour outcome (control, treated, inhibition, significance)","Carcinogen: 7,12-DIMETHYLBENZ[A]ANTHRACENE, 57-97-6, Dose [Inhibitor]: 0, 0.000025 MOL/KG DIET BEGINNING 2 WK PRIOR TO CARCINOGEN AND CONTINUED FOR STUDY DURATION (STUDY DURATION: 25 WK), Route [Inhibitor]: ORAL, Species: RAT, Strain/Sex: CD-1/FEMALE, Target Tissue: Type of Lesion: MAMMARY GLAND: ADENOCARCINOMA, Dose [Carcinogen]: 10 MG ONCE, Promoter: NONE USED","20/25 (80%), 11/25 (44%), 45%, p<0.05"
CC(=O)OCC(=O)[C@@]1(O)CC[C@H]2[C@@H]3CCC4=CC(=O)CC[C@]4(C)[C@H]3C(=O)C[C@@]21C,"tumour outcome (control, treated, inhibition, significance)","Carcinogen: 1,2-DIMETHYLHYDRAZINE DIHYDROCHLORIDE, 306-37-6, Dose [Inhibitor]: 0, 2.5 MG/KG IN PEANUT OIL ON DAYS 1 AND 3 OF STUDY THEN 1/WK FOR 30 WK (STUDY DURATION: 31 WK), Route [Inhibitor]: SUBCUTANEOUS, Species: RAT, Strain/Sex: SPRAGUE-DAWLEY/MALE, Target Tissue: Type of Lesion: COLON: ADENOCARCINOMA, Dose [Carcinogen]: 9 MG/KG 1/WK FOR 7 WK THEN 19.4 MG/KG 1/WK FOR 13 WK, Promoter: NONE USED","14/14 (100%), 12/13 (92%), 8%, not significant"
same,"tumour outcome (control, treated, inhibition, significance)","Carcinogen: 1,2-DIMETHYLHYDRAZINE DIHYDROCHLORIDE, 306-37-6, Dose [Inhibitor]: 0, 2.5 MG/KG IN PEANUT OIL ON DAYS 1 AND 3 OF STUDY THEN 1/WK FOR 30 WK (STUDY DURATION: 31 WK), Route [Inhibitor]: SUBCUTANEOUS, Species: RAT, Strain/Sex: SPRAGUE-DAWLEY/MALE, Target Tissue: Type of Lesion: SMALL INTESTINE: ADENOCARCINOMA, Dose [Carcinogen]: 9 MG/KG 1/WK FOR 7 WK THEN 19.4 MG/KG 1/WK FOR 13 WK, Promoter: NONE USED","13/14 (93%), 10/13 (77%), 17%, not significant"
O=c1c(O)c(-c2ccc(O)cc2O)oc2cc(O)cc(O)c12,"tumour outcome (control, treated, inhibition, significance)","Carcinogen: 4-NITROQUINOLINE-1-OXIDE [56-57-5], Dose [Inhibitor]: 100 PPM IN DIET FOR 10 WK BEGINNING 1 WK PRIOR TO FIRST CARCINOGEN DOSE (STUDY DURATION: 32 WK), Route [Inhibitor]: ORAL, Species: RAT, Strain/Sex: F344/MALE, Target Tissue: Type of Lesion: TONGUE: SQUAMOUS CELL PAPILLOMA, Dose [Carcinogen]: 20 PPM FOR 8 WK IN DRINKING WATER (STUDY DURATION: 32 WK), Promoter: NONE","9/25 (36%), 3/19 (16%), 56%, not significant and 14/25 (56%), 1/19 (5%), 91%, p=0.0004"
same,"tumour outcome (control, treated, inhibition, significance)","Carcinogen: 4-NITROQUINOLINE-1-OXIDE [56-57-5], Dose [Inhibitor]: 100 PPM IN DIET FOR 22 WK BEGINNING 1 WK POST LAST CARCINOGEN DOSE (STUDY DURATION: 31 WK), Route [Inhibitor]: ORAL, Species: RAT, Strain/Sex: F344/MALE, Target Tissue: Type of Lesion: TONGUE: SQUAMOUS CELL PAPILLOMA, Dose [Carcinogen]: 20 PPM FOR 8 WK IN DRINKING WATER (STUDY DURATION: 32 WK), Promoter: NONE","9/25 (36%), 0/20 (0%), 100%, p=0.003 and 14/25 (56%), 1/20 (5%), 91%, p=0.0003"
same,"tumour outcome (control, treated, inhibition, significance)","Carcinogen: 4-NITROQUINOLINE-1-OXIDE [56-57-5], Dose [Inhibitor]: 500 PPM IN DIET FOR 10 WK BEGINNING 1 WK PRIOR TO FIRST CARCINOGEN DOSE (STUDY DURATION: 32 WK), Route [Inhibitor]: ORAL, Species: RAT, Strain/Sex: F344/MALE, Target Tissue: Type of Lesion: TONGUE: SQUAMOUS CELL PAPILLOMA, Dose [Carcinogen]: 20 PPM FOR 8 WK IN DRINKING WATER (STUDY DURATION: 32 WK), Promoter: NONE","9/25 (36%), 2/20 (10%), 72%, p=0.045 and 14/25 (56%), 0/20 (0%), 100%, p=0.00003"
same,"tumour outcome (control, treated, inhibition, significance)","Carcinogen: 4-NITROQUINOLINE-1-OXIDE [56-57-5], Dose [Inhibitor]: 500 PPM IN DIET FOR 22 WK BEGINNING 1 WK POST LAST CARCINOGEN DOSE (STUDY DURATION: 31 WK), Route [Inhibitor]: ORAL, Species: RAT, Strain/Sex: F344/MALE, Target Tissue: Type of Lesion: TONGUE: SQUAMOUS CELL PAPILLOMA, Dose [Carcinogen]: 20 PPM FOR 8 WK IN DRINKING WATER (STUDY DURATION: 32 WK), Promoter: NONE","14/25 (56%), 1/20 (5%), 91%, p=0.0003"
II,outcome,"Carcinogen: N-METHYL-N-NITROSOUREA [684-93-5], Dose [Inhibitor]: 0.05% I2 IN DRINKING WATER, 2 WKS BEFORE CARCINOGEN AND FOR 26 WKS AFTER, Route [Inhibitor]: DRINKING WATER, Species: RAT, Strain/Sex: SPRAGUE-DAWLEY/FEMALE, Target Tissue: Type of Lesion: MAMMARY GLAND: CARCINOMA, Dose [Carcinogen]: 50 MG/KG BW ONCE AT 7 WKS OF AGE (IN SALINE SOLUTION)","8/11 (73%) vs 3/10 (30%) at 16 wks, p<0.05"
same,outcome,"Carcinogen: N-Methyl-N- nitrosourea (684-93-5), Dose [Inhibitor]: 0, 0.05% in drinking water for a total of 18 wks, Route [Inhibitor]: Oral, Species: Rat, Strain/Sex: Sprague-Dawley, female, Target Tissue: Type of Lesion: Mammary gland, Dose [Carcinogen]: 50 mg, study duration 16 wks after carcinogen","100%, 62.5%, p<0.05"
